Measurements reported in patent US20240398823A1, “DUAL INHIBITOR OF HISTONE DEACETYLASE 6 AND HEAT SHOCK PROTEIN 90” (TAIPEI MEDICAL UNIVERSITY, priority 2021, published 2024).

Key:
CT26 tumor recurrence = CT26 tumor recurrence after tumor removal and re-inoculation; type: in vivo, mouse; conditions: 50 mg/kg every two days, day 37
Experimental: (§1) Stage 1: CT26 was injected subcutaneously into the left dorsum of immunocompetent mice (BALB/c), and Compound 75 treatment was started after 3 days, administered intravenously at a dose of 50 mg/kg every two days (7 doses in total). After tumor removal, tumor cells were isolated for in vitro culture (untreated tumor control-tumor; Compound 75-treated tumor: Compound 75-tumor). Stage 2: On day 17, the isolated tumor cells were injected subcutaneously into the right side of the mouse back and the mice were sacrificed on day 37 (as shown in FIG. 14A). […] Data are mean t S.E.M. N values greater than 4.
Whether Compound 75 induces the performance of memory T cells to prevent tumor recurrence was further investigated. Mouse colorectal cancer cells (CT26) were inoculated into the back of immunocompetent mice (BALB/c) and gave control or Compound 75 (50 mg/kg) every two days after 3 days, and removed the tumors on day 14. The cancer cells were isolated and cultured in vitro. The isolated cancer cells were re-injected into the back of the mice on day 17 and the mice were sacrificed on day 37 (FIG. 14A). […] However, in the control group (control/control-tumor), 4 out of 5 cancer recurrences occurred and the tumors were larger (FIGS. 14B, 14C and 14D).

[1] = system: central memory T cells (TCM) in the spleen; assay: Central memory T cells in spleen by flow cytometry; type: in vivo, mouse
Experimental: as §1

[2] = system: human colon normal epithelial cells (CCD841CON); assay: MTT cytotoxicity to normal cells, CCD841CON; type: cell-based; conditions: CCD-841CoN, 48 hours, read-out: IC50, proliferation of CCD841CON
Experimental: FIGS. 3A and 3B show the effects of Compound 75 on cytotoxicity to normal cell lines. Cells were treated with DMSO or different concentrations of Compound 75 for 48 hours and cell viability was assessed by MTT assay. […] Data are expressed as mean t S.D. N values greater than 3. * P<0.05; ** P<0.01; *** P<0.001, compared with the control group.
(§2) The effects on cell viability of the HSP90/HDAC6 dual inhibitors as described in Synthesis Examples (such as Compounds 63, 64, and 66 to 76) were evaluated. Cells were seeded in 96-well plates (5000 cells/well). The next day, the serially diluted drugs were added into the wells and incubated at 37° C. for 48 h. Cell viability was measured by the MTT assay and is expressed as percentages of surviving drug-treated cells relative to untreated control cells. The IC50 was calculated by non-linear regression analysis.
The cytotoxicity to normal cells of Compound 75 was evaluated.

HCT116 = assay: MTT assay, survival of human colorectal cancer cells HCT116; type: cell-based; conditions: HCT-116, 48 h, mean ± SD, read-out: Human cell lines HCT116 IC50(μM ± SD)
Experimental: as §2
The inhibitory effect of the HSP90/HDAC6 dual inhibitors as described in Synthesis Examples on the survival rate of human colorectal cancer cells HCT116 is evaluated using MTT assay.

HDAC3 = biological target: T1, HDAC3 (Homo sapiens, UniProt O15379); assay: HDAC enzymes inhibition assay (Reaction Biology), HDAC3; type: biochemical; conditions: 10-dose, 3-fold dilution from 10 μM, single experiment
T1 construct: Reaction Biology Corporation (ran the assay as a service)

[3] = system: acetylation of α-tubulin and histone H3; assay: Western blot of α-tubulin and histone H3 acetylation in HCT116; type: cell-based, human; conditions: HCT116, 0.25-1 μM, 6 hours
Experimental: The ability of α-tubulin and histone H3 acetylation was measured.
The effects of the HSP90/HDAC6 dual inhibitors as described in Synthesis Examples (such as Compounds 63, 64, and 66 to 76) on several factors were evaluated. Cells were lysed in RIPA buffer (Thermo Fisher Scientific, Wal-tham, MA, USA) and protease inhibitor (Roche, Basel, CH). Sample were further separated in 8% or 15% SDS-PAGE and transferred to nitrocellulose membrane and blocked with 5% skim milk (w/v in PBS). Nitrocellulose membranes were then incubated with primary antibodies against the following antigens: HSP90, Src, AKT, Rb, phosphorylated Rb (p-Rb), FAK, HSP70, α-tubulin acetylation, acetyl histone H3, phosphorylated STAT1 (p-STAT1), STAT1 (Cell signaling, Danvers, MA, USA), α-tubulin, Histone H3 (Genetex, Irvine, USA), IDO (Santa Cruz Biotechnology Dallas, TX, USA) and PD-L1 (Novus, Littleton, CO, USA) at 4° C. for overnight. The target proteins were visualized by using HRP-conjugated secondary antibodies (Jackson ImmunoResearch Laboratories, West Grove, PA, USA) and enhanced chemiluminescence kit (Thermo Fisher Scientific, Waltham, MA, U.S.A.).
The ability of Compound 75 on the acetylation of α-tubulin and histone H3 was evaluated. HCT116 cells were administered with Compound 75 for 6 hours and analyzed by western blot. […] Next, whether Compound 75 inhibited HSP90 was evaluated. […]

T1 sequence (O15379 whole entry): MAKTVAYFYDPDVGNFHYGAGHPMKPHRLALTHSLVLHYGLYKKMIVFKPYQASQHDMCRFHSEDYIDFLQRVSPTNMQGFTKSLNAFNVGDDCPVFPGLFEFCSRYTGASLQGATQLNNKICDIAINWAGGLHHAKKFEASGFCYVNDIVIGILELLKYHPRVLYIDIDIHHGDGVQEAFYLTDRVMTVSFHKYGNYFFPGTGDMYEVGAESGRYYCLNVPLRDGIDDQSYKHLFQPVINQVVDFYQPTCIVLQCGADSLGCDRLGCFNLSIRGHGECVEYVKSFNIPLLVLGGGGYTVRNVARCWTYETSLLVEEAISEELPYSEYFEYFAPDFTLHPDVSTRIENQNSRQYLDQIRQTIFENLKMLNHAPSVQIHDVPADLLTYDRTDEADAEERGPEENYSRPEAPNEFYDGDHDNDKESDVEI
T1 sequence (Q9Y618 395-489 partner limits assumed): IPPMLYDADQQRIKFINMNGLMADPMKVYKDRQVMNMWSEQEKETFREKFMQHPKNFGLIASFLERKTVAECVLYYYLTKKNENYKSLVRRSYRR

COc1ccc(N(Cc2ccc(C(=O)NO)cc2)C(=O)c2cc(C(C)C)c(O)cc2O)cc1 [Compound 75, 2,4-Dihydroxy-N-(4-hydroxycarbamoyl-benzyl)-5-isopropyl-N-(4-methoxy-phenyl)-benzamide]
cancer recurrence, re-inoculated with Compound 75-treated cancer cells (CT26 tumor recurrence; group comp.75/comp.75-tumor): only one mouse suffered cancer recurrence | cancer recurrence, re-inoculated with control cancer cells (CT26 tumor recurrence; group comp.75/control-tumor): only one mouse suffered cancer recurrence | percentage of central memory T cells [1]: significantly increased | IC50 [2]: > 20 µM | IC50 (HCT116): 0.27 ± 0.01 µM | IC50 (HDAC3): 1.37 µM | acetylation of α-tubulin and histone H3 [3]: enhances the acetylation of α-tubulin and histone H3
